target: Carbonic anhydrase 2 (Homo sapiens) (UniProt P00918)
Description: Inhibition of carbonic anhydrase 2 assessed as inhibition of carbon dioxide hydration

With `CS(=O)(=O)/N=C/C1=C(O)CCC=C1` as the molecule, how does the logKi read?
Its logKi is 1.6.

Which logKi does the source give for `NS(=O)(=O)c1ccc(/N=C/c2ccc([N+](=O)[O-])cc2)cc1` here?
The logKi was 1.7.

How did the logKi turn out when `CC(=O)Nc1ccc(/C=N/c2ccc(S(N)(=O)=O)cc2)cc1` was run?
The logKi was 2.04.

`NS(=O)(=O)c1ccc(C/N=C/c2ccc([N+](=O)[O-])cc2)cc1` (stereo in doubt; 60) was tested. Which logKi did it give?
The logKi was 2.15.

Which logKi does the source give for `NS(=O)(=O)c1ccc(/N=C/c2cccc([N+](=O)[O-])c2)cc1` here?
The logKi was 2.25.

How did the logKi turn out when `NS(=O)(=O)c1ccc(C/N=C/c2ccc([N+](=O)[O-])cc2)cc1` (stereo in doubt; 45) was run?
Its logKi is 1.3.

How did the logKi turn out when `COc1cc(/C=N/c2ccc(S(N)(=O)=O)cc2)ccc1C(C)=O` was run?
The logKi was 2.

`NS(=O)(=O)c1ccc(C/N=C/c2ccccc2O)cc1` was tested. Which logKi did it give?
The logKi was 2.11.

With `NS(=O)(=O)c1ccc(/N=C/C2=C(Cl)CCC=C2)cc1` as the molecule, how does the logKi read?
The logKi was 2.46.

`COc1ccc(/C=N/Cc2ccc(S(N)(=O)=O)cc2)cc1` was tested. Which logKi did it give?
The logKi was 2.08.

For `NS(=O)(=O)c1ccc(C/N=C/c2ccccc2[N+](=O)[O-])cc1`, which logKi is on record?
The logKi was 2.48.

`NS(=O)(=O)c1ccc(/N=C/c2ccc(Cl)cc2)cc1` was tested. Which logKi did it give?
The logKi was 2.45.

`NS(=O)(=O)c1ccc(/N=C/C=C/c2ccccc2)cc1` was tested. Which logKi did it give?
Its logKi is 1.7.

`CS(=O)(=O)c1ccc(CC/N=C/c2ccccc2Cl)cc1` was tested. Which logKi did it give?
The logKi was 2.32.

With `CC(=O)Nc1ccc(/C=N/Cc2ccc(S(N)(=O)=O)cc2)cc1` as the molecule, how does the logKi read?
The logKi was 2.04.

Which logKi does the source give for `COc1ccccc1/C=N/c1ccc(S(N)(=O)=O)cc1` here?
Its logKi is 2.23.

Which logKi does the source give for `CC(=O)Nc1ccc(/C=N/CCc2ccc(S(C)(=O)=O)cc2)cc1` here?
The logKi was 1.6.

How did the logKi turn out when `NS(=O)(=O)c1ccc(C/N=C/c2ccccc2Cl)cc1` was run?
Its logKi is 1.95.

— ChEMBL document CHEMBL1154241, “A QSAR study on relationship between structure of sulfonamides and their carbonic anhydrase inhibitory activity using the eigenvalue (EVA) method” (Eur J Med Chem, 2009)
